Consider 16 compounds from patent publication US11787785B2 (NOVARTIS AG, priority 2021, dated 2023).

pEC50: −log10 of the molar value.

One assay deals with Fetal Hemoglobin (HbF). The assay can be described thus: Small molecule HbF induction assay (mPB CD34+ cells erythroid differentiated, flow cytometry). It is filed as cell-based. The conditions noted are these: Homo sapiens, 168 h. On the procedure: Cryopreserved primary human CD34^+ hematopoietic stem and progenitor cells were obtained from AllCells, LLC. The CD34^+ cells were isolated from the peripheral blood of healthy donors after mobilization by administration of granulocyte colony-stimulating factor. Cells were differentiated ex vivo toward the erythroid lineage using a 2-phase culture method. In the first phase, cells were cultured in StemSpan™ Serum-Free Expansion Media (SFEM) ([…] Technologies Inc.) supplemented with rhSCF (50 ng/mL, Peprotech®, Inc.), rhIL-6 (50 ng/mL, Peprotech®, Inc.), rhIL-3 (50 ng/mL, Peprotech®, Inc.), and rhFlt3L (50 ng/mL, Peprotech®, Inc.), and 1× antibiotic-antimycotic (Life Technologies, Thermo Fisher Scientific) for 6 days at 37° C. with 5% CO2. During the second phase, cells were cultured in erythroid differentiation media at 5,000 cells/mL in the presence of compound for 7 days at 37° C. with 5% CO2. Erythroid Differentiation Media is comprised of IMDM (Life Technologies) supplemented with insulin (10 μg/mL, Sigma Aldrich), heparin (2 U/mL Sigma Aldrich), holo-transferrin (330 μg/mL, Sigma Aldrich), human serum AB (5%, Sigma Aldrich), hydrocortisone (1 μM, […] Technologies), rhSCF (100 ng/mL, Peprotech®, Inc.), rhIL-3 (5 ng/mL, Peprotech®, Inc.), rhEPO (3 U/mL, Peprotech®, Inc.), and 1× antibiotic-antimycotic. All compounds were dissolved and diluted into dimethylsulfoxide (DMSO) and were added to culture media for a final concentration of 0.3% DMSO for testing in a 7-point, 1:3 dilution series starting at 30 uM.
Staining and Flow Cytometry
For viability analysis, samples were washed and resuspended in phosphate-buffered saline (PBS) and stained with LIVE/DEAD™ Fixable Violet Dead Cell Stain Kit (Life Technologies, L34963) for 20 minutes. Cells were then washed again with PBS and resuspended in PBS supplemented with 2% fetal bovine serum (FBS), and 2 mM EDTA to prepare for cell surface marker analysis. Cells were labeled with allophycocyanin-conjugated CD235a (1:100, BD Biosciences, 551336) and Brilliant Violet-conjugated CD71 (1:100, BD Biosciences, 563767) antibodies for 20 minutes. For analysis of cytoplasmic Fetal Hemoglobin (HbF), cells were fixed and permeabilized using the Fixation (BioLegend®, 420801) and Permeabilization Wash (BioLegend®, 421002) Buffers according to the manufacturer's protocol. During the permeabilization step, cells were stained with phycoerythrin-conjugated or FITC-conjugated HbF-specific antibody (1:10-1:25, Invitrogen™, MHFH04-4) for 30 minutes. Stained cells were washed with phosphate-buffered saline before analysis on the FACSCanto™ II flow cytometer or LSRFortessa™ (BD Biosciences). Data analysis was performed with FIowJo™ Software (BD Biosciences).
HbF Induction Activity of Compounds (Table 2)
mPB CD34+ cells were expanded for 6 days, then erythroid differentiated in the presence of compound for 7 days. Cells were fixed, stained and analyzed by flow cytometry. […] HbF Amax=the highest percentage of cells staining positive for HbF (% HbF+ cells) in the fitted dose-response curve. The baseline % HbF+ cells for DMSO-treated cells is approximately 30-40%.
(Flow cytometry measures light scatter and fluorescence of single cells or particles in a stream.)

Assay [1] concerns the target T1, WIZ protein (HiBit-WIZ fusion protein) (Homo sapiens, UniProt O95785+Q96SW2).
T1 construct: expressed in transfected cells
The assay can be described thus: Quantification of WIZ protein levels in HiBit tag fusion protein assay (WIZ HiBit assay in 293T cells). Format: cell-based. The conditions noted are these: for Dmax at 25 µM / remaining activity at 25 µM: HEK-293T, 293T cells; for Dmax at 25 µM: 100 − Amax, read-out: % degradation of WIZ (100 − Amax); for remaining activity at 25 µM: DMSO-normalized, curve-fitted percentage of WIZ-HiBit remaining at 25 uM, read-out: WIZ Amax; for DC50: WIZ HiBit assay in 293T cells, 10-point, 5-fold dose response, highest concentration 25 μM, about 18 hours, read-out: WIZ AC50. The method in brief:
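HiBit-tagged WIZ (N-terminal tag, HSVTK promoter) stably expressed single-copy in 293T cells; 10-point 1:5 compound series, top 25 μM, ~18 h at 37 °C. Lytic HiBit/LgBit luminescence read; Amax = curve-fitted % WIZ-HiBit remaining at 25 μM, DMSO normalized to 100%.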
On the technique in general: HiBiT is a short tag that completes a luciferase, so light tracks the accessible tagged protein.

T1 sequence (O95785 whole entry, the tested form may be a part): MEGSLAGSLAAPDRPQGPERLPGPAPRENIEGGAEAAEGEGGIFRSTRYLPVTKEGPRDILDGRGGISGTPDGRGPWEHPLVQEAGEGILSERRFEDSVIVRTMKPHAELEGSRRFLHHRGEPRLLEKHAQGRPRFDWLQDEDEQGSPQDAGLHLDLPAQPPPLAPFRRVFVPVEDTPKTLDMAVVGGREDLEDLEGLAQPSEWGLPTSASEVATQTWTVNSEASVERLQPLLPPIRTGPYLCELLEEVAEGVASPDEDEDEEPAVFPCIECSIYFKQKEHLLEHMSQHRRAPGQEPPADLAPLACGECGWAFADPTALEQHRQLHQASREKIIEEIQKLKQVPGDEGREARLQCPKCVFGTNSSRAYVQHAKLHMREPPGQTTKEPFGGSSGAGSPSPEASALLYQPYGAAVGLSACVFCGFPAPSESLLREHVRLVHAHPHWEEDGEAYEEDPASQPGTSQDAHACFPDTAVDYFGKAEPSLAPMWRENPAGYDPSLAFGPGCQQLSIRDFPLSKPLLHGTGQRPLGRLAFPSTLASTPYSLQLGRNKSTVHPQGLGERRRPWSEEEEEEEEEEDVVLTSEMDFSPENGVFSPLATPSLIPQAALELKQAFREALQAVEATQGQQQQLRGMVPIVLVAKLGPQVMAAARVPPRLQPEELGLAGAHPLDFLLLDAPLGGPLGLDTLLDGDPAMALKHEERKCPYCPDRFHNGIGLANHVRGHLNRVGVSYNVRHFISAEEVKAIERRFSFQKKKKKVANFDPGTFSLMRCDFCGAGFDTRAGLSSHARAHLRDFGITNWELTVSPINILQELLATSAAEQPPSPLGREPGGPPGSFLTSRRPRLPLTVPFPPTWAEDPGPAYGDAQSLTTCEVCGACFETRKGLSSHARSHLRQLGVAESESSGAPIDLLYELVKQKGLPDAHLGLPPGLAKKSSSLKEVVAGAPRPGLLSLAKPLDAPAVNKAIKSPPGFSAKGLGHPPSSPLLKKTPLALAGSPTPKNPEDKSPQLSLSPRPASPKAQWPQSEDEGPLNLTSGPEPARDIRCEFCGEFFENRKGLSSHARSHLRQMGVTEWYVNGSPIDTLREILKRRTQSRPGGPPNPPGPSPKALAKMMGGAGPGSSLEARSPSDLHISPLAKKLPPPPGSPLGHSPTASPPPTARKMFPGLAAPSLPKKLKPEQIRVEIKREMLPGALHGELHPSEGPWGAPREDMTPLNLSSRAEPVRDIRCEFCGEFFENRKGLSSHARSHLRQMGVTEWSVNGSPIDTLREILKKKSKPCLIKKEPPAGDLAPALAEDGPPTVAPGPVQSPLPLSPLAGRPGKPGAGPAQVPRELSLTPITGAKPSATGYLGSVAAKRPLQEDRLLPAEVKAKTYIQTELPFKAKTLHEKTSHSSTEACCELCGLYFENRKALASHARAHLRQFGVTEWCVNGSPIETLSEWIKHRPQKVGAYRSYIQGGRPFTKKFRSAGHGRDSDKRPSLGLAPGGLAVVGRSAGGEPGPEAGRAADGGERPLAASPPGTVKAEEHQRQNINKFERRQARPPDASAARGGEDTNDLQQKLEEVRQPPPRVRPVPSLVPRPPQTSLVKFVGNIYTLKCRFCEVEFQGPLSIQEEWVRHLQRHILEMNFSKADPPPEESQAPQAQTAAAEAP
T1 sequence (Q96SW2 whole entry, the tested form may be a part): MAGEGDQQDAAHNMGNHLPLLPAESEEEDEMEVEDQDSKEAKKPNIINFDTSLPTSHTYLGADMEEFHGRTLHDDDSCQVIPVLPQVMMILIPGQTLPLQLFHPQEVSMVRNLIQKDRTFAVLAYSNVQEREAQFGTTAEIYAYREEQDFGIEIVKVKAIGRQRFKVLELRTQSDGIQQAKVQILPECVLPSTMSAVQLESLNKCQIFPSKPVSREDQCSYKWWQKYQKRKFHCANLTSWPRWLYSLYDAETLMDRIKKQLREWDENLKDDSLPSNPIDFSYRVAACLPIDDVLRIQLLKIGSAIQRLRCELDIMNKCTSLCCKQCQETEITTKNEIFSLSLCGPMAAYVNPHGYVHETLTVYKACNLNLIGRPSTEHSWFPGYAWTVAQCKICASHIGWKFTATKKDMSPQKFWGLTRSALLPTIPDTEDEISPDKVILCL
T1 sequence (Q16531 whole entry partner, the tested form may be a part): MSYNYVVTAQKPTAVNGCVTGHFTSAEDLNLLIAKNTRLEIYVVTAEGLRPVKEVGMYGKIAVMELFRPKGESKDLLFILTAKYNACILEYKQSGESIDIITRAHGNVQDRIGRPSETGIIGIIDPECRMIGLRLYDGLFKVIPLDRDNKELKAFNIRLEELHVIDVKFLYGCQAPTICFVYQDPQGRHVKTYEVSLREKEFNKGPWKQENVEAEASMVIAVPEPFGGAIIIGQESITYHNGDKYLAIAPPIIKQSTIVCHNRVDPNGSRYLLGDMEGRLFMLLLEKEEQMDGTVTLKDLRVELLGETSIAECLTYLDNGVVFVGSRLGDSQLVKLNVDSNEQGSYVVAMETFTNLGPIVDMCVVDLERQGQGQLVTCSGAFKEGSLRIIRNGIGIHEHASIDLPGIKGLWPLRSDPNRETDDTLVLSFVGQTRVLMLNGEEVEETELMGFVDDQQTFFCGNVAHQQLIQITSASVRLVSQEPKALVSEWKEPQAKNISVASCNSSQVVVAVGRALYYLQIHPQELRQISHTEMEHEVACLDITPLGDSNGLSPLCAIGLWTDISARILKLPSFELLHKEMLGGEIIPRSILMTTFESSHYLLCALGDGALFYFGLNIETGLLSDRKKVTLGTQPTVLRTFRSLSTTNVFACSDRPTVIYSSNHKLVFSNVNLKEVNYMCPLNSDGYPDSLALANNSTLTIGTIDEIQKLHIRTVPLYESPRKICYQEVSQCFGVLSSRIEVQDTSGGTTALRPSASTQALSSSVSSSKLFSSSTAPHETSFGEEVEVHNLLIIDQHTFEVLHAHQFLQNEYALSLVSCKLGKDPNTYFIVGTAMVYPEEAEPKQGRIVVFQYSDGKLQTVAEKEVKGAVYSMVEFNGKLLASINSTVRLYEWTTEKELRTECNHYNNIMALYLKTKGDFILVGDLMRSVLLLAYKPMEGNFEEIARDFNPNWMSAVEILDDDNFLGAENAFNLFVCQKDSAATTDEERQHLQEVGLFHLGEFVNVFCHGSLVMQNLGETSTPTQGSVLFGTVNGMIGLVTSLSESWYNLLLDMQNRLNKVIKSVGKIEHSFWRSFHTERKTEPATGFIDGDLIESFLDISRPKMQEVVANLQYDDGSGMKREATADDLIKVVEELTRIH

As to `O=C1CCN(c2cnn3ccc(CC4CCN(Cc5cccnc5)CC4)cc23)C(=O)N1` [Example 17, 1-(5-((1-(pyridin-3-ylmethyl)piperidin-4-yl)methyl)pyrazolo[1,5-a]pyridin-3-yl)dihydropyrimidine-2,4(1H,3H)-dione], the Emax in the assay on Fetal Hemoglobin (HbF) (7 days with compound, baseline DMSO approximately 30-40%, read-out: HbF Amax (highest percentage of cells staining positive for HbF in the fitted dose-response curve)) was determined as 80%. For the same compound, the pEC50 with Fetal Hemoglobin (HbF) (erythroid differentiated in presence of compound for 7 days, flow cytometry) was 6.58. In assay [1], the Dmax at 25 µM was determined as 82%, the remaining activity at 25 µM worked out at 18% and the DC50 came out at 48 nM.
Regarding `CC(C)CN1CC[C@@H](Cc2ccn3ncc(-n4cc(F)c(=O)[nH]c4=O)c3c2)C[C@@H]1C` [Example 349, 5-fluoro-1-(5-(((2S,4R)-1-isobutyl-2-methylpiperidin-4-yl)methyl)pyrazolo[1,5-a]pyridin-3-yl)pyrimidine-2,4(1H,3H)-dione], in assay [1], the Dmax at 25 µM was determined as 86%, the remaining activity at 25 µM was 14% and the DC50 was found to be 118 nM.
With `C[C@H]1C[C@H](Cc2ccn3ncc(-n4cc(F)c(=O)[nH]c4=O)c3c2)CCN1CC1CCC(F)(F)CC1` [Example 350, 1-(5-(((2S,4R)-1-((4,4-difluorocyclohexyl)methyl)-2-methylpiperidin-4-yl)methyl)pyrazolo[1,5-a]pyridin-3-yl)-5-fluoropyrimidine-2,4(1H,3H)-dione], in assay [1], the Dmax at 25 µM was determined as 90%, the remaining activity at 25 µM is 10% and the DC50 came out at 28 nM.
For `Cc1cn(-c2cnn3ccc(C[C@@H]4CCN(CC5CCC(F)(F)CC5)[C@@H](C)C4)cc23)c(=O)[nH]c1=O` [Example 351, 1-(5-(((2S,4R)-1-((4,4-difluorocyclohexyl)methyl)-2-methylpiperidin-4-yl)methyl)pyrazolo[1,5-a]pyridin-3-yl)-5-methylpyrimidine-2,4(1H,3H)-dione] the same measures were 91%, 9% and 47 nM.
For `C[C@H]1C[C@H](Cc2ccn3ncc(-n4cc(Cl)c(=O)[nH]c4=O)c3c2)CCN1CC1CCC(F)(F)CC1` [Example 352, 5-chloro-1-(5-(((2S,4R)-1-((4,4-difluorocyclohexyl)methyl)-2-methylpiperidin-4-yl)methyl)pyrazolo[1,5-a]pyridin-3-yl)pyrimidine-2,4(1H,3H)-dione] the same measures were 90%, 10% and 192 nM.
The like results for `COc1cn(-c2cnn3ccc(C[C@@H]4CCN(CC5CCC(F)(F)CC5)[C@@H](C)C4)cc23)c(=O)[nH]c1=O` [Example 353, 1-(5-(((2S,4R)-1-((4,4-difluorocyclohexyl)methyl)-2-methylpiperidin-4-yl)methyl)pyrazolo[1,5-a]pyridin-3-yl)-5-methoxypyrimidine-2,4(1H,3H)-dione] were, in that order, 70%, 30% and 9100 nM.
Take `CC(C)CN1CC[C@@H](Cc2ccn3ncc(-n4cc(C5CC5)c(=O)[nH]c4=O)c3c2)C[C@@H]1C` [Example 354, 5-cyclopropyl-1-(5-(((2S,4R)-1-isobutyl-2-methylpiperidin-4-yl)methyl)pyrazolo[1,5-a]pyridin-3-yl)pyrimidine-2,4(1H,3H)-dione]: in assay [1], the Dmax at 25 µM was 0%, the remaining activity at 25 µM was determined as 100% and the DC50 was greater than 25000 nM.
For `C[C@H]1C[C@H](Cc2ccn3ncc(-n4ccc(=O)[nH]c4=O)c3c2)CCN1C(=O)C1CC1` [Example 355, 1-(5-(((2S,4R)-1-(cyclopropanecarbonyl)-2-methylpiperidin-4-yl)methyl)pyrazolo[1,5-a]pyridin-3-yl)pyrimidine-2,4(1H,3H)-dione] the same measures were 82%, 18% and 183 nM.
Consider `CCS(=O)(=O)N1CC[C@@H](Cc2ccn3ncc(-n4ccc(=O)[nH]c4=O)c3c2)C[C@@H]1C` [Example 356, 1-(5-(((2S,4R)-1-(ethylsulfonyl)-2-methylpiperidin-4-yl)methyl)pyrazolo[1,5-a]pyridin-3-yl)pyrimidine-2,4(1H,3H)-dione], for which, in assay [1], the Dmax at 25 µM amounted to 83%, the remaining activity at 25 µM came to 17% and the DC50 was 162 nM.
`CC(C)CN1CCN(Cc2ccn3ncc(-n4ccc(=O)[nH]c4=O)c3c2)C[C@@H]1C` [Example 357, (S)-1-(5-((4-isobutyl-3-methylpiperazin-1-yl)methyl)pyrazolo[1,5-a]pyridin-3-yl)pyrimidine-2,4(1H,3H)-dione]: in assay [1], the Dmax at 25 µM stood at 85%, the remaining activity at 25 µM was found to be 15% and the DC50 stood at 124 nM.
The like results for `CC(C)CN1CCN(Cc2ccn3ncc(-n4cc(F)c(=O)[nH]c4=O)c3c2)C[C@@H]1C` [Example 358, (S)-5-fluoro-1-(5-((4-isobutyl-3-methylpiperazin-1-yl)methyl)pyrazolo[1,5-a]pyridin-3-yl)pyrimidine-2,4(1H,3H)-dione] were, in that order, 86%, 14% and 128 nM.
The like results for `Cc1cn(-c2cnn3ccc(CN4CCN(CC(C)C)[C@@H](C)C4)cc23)c(=O)[nH]c1=O` [Example 359, (S)-1-(5-((4-isobutyl-3-methylpiperazin-1-yl)methyl)pyrazolo[1,5-a]pyridin-3-yl)-5-methylpyrimidine-2,4(1H,3H)-dione] were, in that order, 89%, 11% and 365 nM.
As for `COc1cn(-c2cnn3ccc(CN4CCN(CC(C)C)[C@@H](C)C4)cc23)c(=O)[nH]c1=O` [Example 360, (S)-1-(5-((4-isobutyl-3-methylpiperazin-1-yl)methyl)pyrazolo[1,5-a]pyridin-3-yl)-5-methoxypyrimidine-2,4(1H,3H)-dione], in assay [1], the Dmax at 25 µM was determined as 24%, the remaining activity at 25 µM stood at 76% and the DC50 was greater than 25000 nM.
The like results for `CC(C)CN1CCN(Cc2ccn3ncc(-n4cc(C5CC5)c(=O)[nH]c4=O)c3c2)C[C@@H]1C` [Example 361, (S)-5-cyclopropyl-1-(5-((4-isobutyl-3-methylpiperazin-1-yl)methyl)pyrazolo[1,5-a]pyridin-3-yl)pyrimidine-2,4(1H,3H)-dione] were, in that order, 0%, 100% and greater than 25000 nM.
On to `Cc1cn(-c2cnn3ccc(CN4CCN(CC5CC5)[C@@H](C)C4)cc23)c(=O)[nH]c1=O` [Example 362, (S)-1-(5-((4-(cyclopropylmethyl)-3-methylpiperazin-1-yl)methyl)pyrazolo[1,5-a]pyridin-3-yl)-5-methylpyrimidine-2,4(1H,3H)-dione], for which, in assay [1], the Dmax at 25 µM was found to be 84%, the remaining activity at 25 µM was found to be 16% and the DC50 stood at 765 nM.
With `C[C@H]1CN(Cc2ccn3ncc(-n4ccc(=O)[nH]c4=O)c3c2)CCN1CC1CCC(F)(F)CC1` [Example 363, (S)-1-(5-((4-((4,4-difluorocyclohexyl)methyl)-3-methylpiperazin-1-yl)methyl)pyrazolo[1,5-a]pyridin-3-yl)pyrimidine-2,4(1H,3H)-dione], in assay [1], the Dmax at 25 µM stood at 85%, the remaining activity at 25 µM amounted to 15% and the DC50 stood at 109 nM.

The term pEC50 denotes the EC50 on a negative log10 scale, so that one unit is a factor of ten.
